Where a chain is given by its changes, count along the chain named.
Tests used:
[1] = biological target: T1, human ALDH2 wild type (Homo sapiens, UniProt P05091); assay: ALDH2 enzymatic assay (NADH at 340 nm), recombinant wild type enzyme; assay type: biochemical; design: key: −: no activation or inhibition; +: activation less than control 1; ++: activation similar to control 1, within 10%; +++: activation more than control 1 and less than control (compound 161); ++++: activation similar to compound 161, within 10%; details: activation relative to benchmarks control 1 and compound 161
T1 construct: His-tag (pTrcHis vector) (N); made in house; host or cells: E. coli BL21
T1 sequence (P05091 18-517): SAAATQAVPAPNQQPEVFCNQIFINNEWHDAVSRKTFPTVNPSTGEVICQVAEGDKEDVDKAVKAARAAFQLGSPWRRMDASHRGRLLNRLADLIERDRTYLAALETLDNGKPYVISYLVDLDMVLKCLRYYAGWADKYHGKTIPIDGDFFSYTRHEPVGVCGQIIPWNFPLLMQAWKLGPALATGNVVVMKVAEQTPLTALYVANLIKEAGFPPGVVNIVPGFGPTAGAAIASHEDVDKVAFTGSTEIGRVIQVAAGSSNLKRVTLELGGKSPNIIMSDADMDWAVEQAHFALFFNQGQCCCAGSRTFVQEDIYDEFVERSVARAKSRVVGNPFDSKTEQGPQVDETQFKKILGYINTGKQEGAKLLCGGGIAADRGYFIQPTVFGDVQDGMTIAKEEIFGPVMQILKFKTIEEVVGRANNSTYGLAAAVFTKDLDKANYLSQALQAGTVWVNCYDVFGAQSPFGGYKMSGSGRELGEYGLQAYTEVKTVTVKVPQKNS
Excerpt: (§1) ALDH2 catalyzes the oxidative reaction of substrate acetaldehyde to acetic acid using NAD^+ as a cofactor. Enzymatic activity, or catalytic rate, of aldehyde dehydrogenase (ALDH2) can be measured spectrophotometrically at UV wavelength λ340 nm by the accumulation of reduced product NADH derived from NAD^+. […] This method is well-established in the literature [e.g. D. K. Rex, W. F. Bosron, J. E. Smialek, T. K. Li, Alcohol Clin Exp Res 9, 147 (1985)].
(§2) Full-length wild type human ALDH2 cDNA was purchased from ATCC (No. MGC-1806. GenBank ID: BC002967). The 18-amino acid mitochondria transport signal sequence was removed by PCR and cloned into the NheI/HindIII sites of a His-tag vector, pTrcHis, using standard molecular cloning techniques. The human ALDH2* cDNA construct containing the Asian E487K mutation was obtained by site-directed mutagenesis to create the E487K substitution of the wild type ALDH2. Both human clones were designed to express a recombinant protein with the His-tag at the N-terminus of the protein. For the co-expression experiments of human ALDH2 wild type and ALDH2*2 heterotetramers, a wild type ALDH2 gene and a ALDH2 E487K gene were inserted separately into the two multiple cloning sites of pETDuet-1 vector. (Novagen, Calif., USA). All the vectors were transformed into BL21 E. coli host cells and subjected to 0.5 mM IPTG induction for protein expression at 30° C. Purifications of the recombinant proteins by affinity nickel columns (HisTrap, GE Healthy Science, USA) were carried out using standard protocols according to manufacturer's instructions (Novagen, USA).
(§3) Control 1 and compound 161 are used as benchmarks and the symbols have the following representation: […]

[2] = biological target: T2, human ALDH2*2 recombinant mutant enzyme (E487K) (Homo sapiens, UniProt P05091, E504K); assay: ALDH2 enzymatic assay (NADH at 340 nm), recombinant mutant enzyme; assay type: biochemical; design: key: −: no activation or inhibition; +: activation less than control 1; ++: activation similar to control 1, within 10%; +++: activation more than control 1 and less than control (compound 161); ++++: activation similar to compound 161, within 10%; details: activation relative to benchmarks control 1 and compound 161
T2 construct: His-tag (pTrcHis vector) (N); made in house; host or cells: E. coli BL21
T2 sequence (P05091 18-517 E504K): T1 sequence (P05091 18-517) with E487K
Excerpt: as §1, §2, §3

Row | SMILES | ALDH2 (wild-type) [1] | ALDH2 (mutant) [2]
1 | COc1ccc(CNC(=O)c2c(Cl)cccc2Br)cc1O [Compound 105] | − | +
2 | COc1ccc(CNC(=O)c2c(Cl)cccc2Br)cc1Cl [Compound 104] | + | +
3 | COc1ccc(CNC(=O)c2c(Cl)cccc2NCc2cccc(C)c2)cc1F [Compound 129] | − | −
4 | COc1ccc(CNC(=O)c2c(C)cccc2C)cc1 [Compound 114] | + | +
5 | COc1ccc(CNC(=O)c2c(Cl)cccc2Br)cc1F [Compound 106] | + | ++
6 | COc1ccc(CNC(=O)c2c(Cl)cccc2NCCO)cc1F [Compound 109] | + | ++
7 | COc1ccc(CNC(=O)c2c(Cl)cccc2Oc2ccc(Cl)cc2)cc1F [Compound 137] | ++ | +
8 | COc1ccc(CNC(=O)c2c(Cl)cccc2Oc2cccc(C)c2)cc1F [Compound 131] | + | +
9 | COc1ccc(CNC(=O)c2c(Cl)ccnc2NCC(C)O)cc1F (stereo not shown) [Compound 185] | + | +
10 | COc1ccc(CNC(=O)c2c(C)ccnc2OCC2CCNC2)cc1F (stereo not shown) [Compound 237] | + | +
11 | COc1ccc(CNC(=O)c2c(C)cccc2C)cc1F [Compound 119] | − | +
12 | COc1ccc(CNC(=O)c2c(Cl)cccc2Oc2cccc(Cl)c2)cc1F [Compound 136] | ++ | ++
13 | CCS(=O)(=O)c1nccc(Cl)c1C(=O)NCc1ccc(OC)c(F)c1 [Compound 220] | + | +
14 | COc1ccc(CNC(=O)c2c(C(F)(F)F)ccnc2OCC2CCCC2)cc1F [Compound 230] | + | +
15 | COc1ccc(CNC(=O)c2c(C)ccnc2OCC2CCCC2)cc1F [Compound 236] | + | +
16 | COc1ccc(CNC(=O)c2c(Cl)cccc2OC(C)C2CC2)cc1F (stereo not shown) [Compound 150] | +++ | ++
17 | COc1cc(CNC(=O)c2c(Cl)ccnc2Cl)ccc1F [Compound 171] | − | −
18 | COc1ccc(CNC(=O)c2c(Cl)ccnc2OC2CCC2)cc1F [Compound 197] | ++++ | ++++
19 | CS(=O)(=O)c1ccc(CNC(=O)c2c(Cl)ccnc2OCC2CC2)cc1F [Compound 253] | + | +
20 | CCCOc1cccc(Cl)c1C(=O)NCc1ccc(OC)c(F)c1 [Compound 147] | +++ | +++
21 | COc1ccc(CNC(=O)c2c(Cl)ccnc2S(C)(=O)=O)cc1F [Compound 219] | + | +

Row | SMILES | ALDH2 (wild-type) [1] | ALDH2 (mutant) [2]
22 | COc1ccc(CNS(=O)(=O)c2c(Cl)cccc2Cl)cc1F [Compound 154] | + | +
23 | COc1ccc(CNC(=O)c2c(C)ccnc2OC(C)C)cc1F [Compound 233] | + | +
24 | COc1cc(CNC(=O)c2c(Cl)ccnc2OCC2CC2)ccc1F [Compound 172] | + | +
25 | CCC(CC)Oc1nccc(Cl)c1C(=O)NCc1ccc(OC)c(F)c1 [Compound 201] | ++ | ++
26 | O=C(NCc1ccc(OC(F)(F)F)c(F)c1)c1c(Cl)ccnc1NCC1CC1 [Compound 191] | + | +
27 | O=C(NCc1ccc2ncoc2c1)c1c(Cl)ccnc1OCC1CC1 [Compound 259] | + | +
28 | COc1ccc(CNS(=O)(=O)c2c(Cl)cccc2OCC2CC2)cc1F [Compound 164] | + | +
29 | COc1cc(F)c(CNC(=O)c2c(Cl)ccnc2Cl)cc1F [Compound 176] | ++ | ++
30 | COc1c(F)cc(CNC(=O)c2c(Cl)ccnc2OCC(C)C)cc1F [Compound 252] | + | +
31 | COc1ccc(CN(C)C(=O)c2c(Cl)ccnc2OCC2CC2)cc1F [Compound 247] | − | −
32 | O=C(NCc1ccc2c(c1)OCO2)c1c(Cl)cccc1NC1CCCNC1 (stereo not shown) [Compound 133] | + | +
33 | COc1ccc(CNC(=O)c2c(Cl)ccnc2SCC(C)C)cc1F [Compound 218] | + | +
34 | COc1ccc(CNC(=O)c2c(Cl)ccnc2OCC2CCCN2)cc1F (stereo not shown) [Compound 204] | + | +
35 | COc1ccc(CNC(=O)c2ccc(Br)cc2C)cc1F [Compound 124] | + | +
36 | CCCOc1nccc(Cl)c1C(=O)NCc1ccc(OC)c(F)c1 [Compound 194] | + | +++
37 | COc1ccc(CNC(=O)c2c(Cl)ccnc2OCC2CC2)cc1C [Compound 256] | + | +
38 | COc1ccc(CNC(=O)c2c(C)cccc2Br)cc1 [Compound 113] | + | +
39 | O=C(NCc1ccc(OC(F)(F)F)c(F)c1)c1c(Cl)ccnc1OCC1CC1 [Compound 187] | + | ++
40 | COc1ccc(CNC(=O)c2c(Cl)cccc2OCC2CCCC2)cc1F [Compound 145] | ++ | +++
41 | COc1ccc(CNC(=O)c2c(OCC3CC3)ccnc2Cl)cc1F [Compound 170] | ++ | +++

Reference: patent US9670162B2, “Mitochondrial aldehyde dehyrogenase-2 modulators and methods of use thereof” (The Board of Trustees of the Leland Stanford Junior …, priority 2013, dated 2017)
